Experimental data from patent publication US20140357487A1, “PLANTS HAVING INCREASED TOLERANCE TO HERBICIDES” (BASF SE, priority 2011, published 2014).

Experiments:
Conditions in all cases: normalized on Arabidopsis wild-type HPPD
[1] = tested on: Avena HPPD; test: HPPD activity assay, Avena HPPD; type: biochemical, Avena sativa
Protocol: (§1) HPPD produces homogentisic acid and CO2 from 4-hydroxyphenylpyruvate (4-HPP) and O2. The activity assay for HPPD is based on the analysis of homogentisic acid by reversed phase HPLC.
(§2) The assay mixture can contain 150 mM potassium phosphate buffer pH 7.0, 50 mM L-ascorbic acid, 1 μM FeSO4 and 7 μg of purified enzyme in a total volume of 1 ml.
(§3) Inhibitors are dissolved in DMSO (dimethylsulfoxide) to a concentration of 20 mM or 0.5 mM, respectively. From this stock solution serial five-fold dilutions are prepared in DMSO, which are used in the assay. The respective inhibitor solution accounts for 1% of the assay volume. Thus, final inhibitor concentrations range from 200 μM to 2.5 nM or from 5 μM to 63 pM, respectively. After a preincubation of 30 min the reaction is started by adding 4-HPP to a final concentration of 0.1 mM. The reaction is allowed to proceed for 120 min at room temperature. The reaction is stopped by addition of 100 μl of 4.5 M phosphoric acid.
(§4) Activities are normalized by setting the uninhibited enzyme activity to 100%. IC50 values are calculated using non-linear regression.
(§5) The assay mixture can contain 150 mM potassium phosphate buffer pH 7.0, 50 mM L-ascorbic acid, 100 μM Catalase (Sigma-Aldrich), 1 μM FeSO4 and 0.2 units of purified HPPD enzyme in a total volume of 505 μl. 1 unit is defined as the amount of enzyme that is required to produce 1 nmol of HGA per minute at 20° C.
(§6) Inhibitors are dissolved in DMSO (dimethylsulfoxide) to a concentration of 0.5 mM. From this stock solution serial five-fold dilutions are prepared in DMSO, which are used in the assay. The respective inhibitor solution accounts for 1% of the assay volume. Thus, final inhibitor concentrations range from 5 μM to 320 pM, respectively. Activities are normalized by setting the uninhibited enzyme activity to 100%. IC50 values are calculated using non-linear regression.
(§7) Using methods which are described in the above examples or well known in the art, purified, recombinant wildtype HPPD enzymes are characterized with respect to their kinetic properties and sensitivity towards HPPD inhibiting herbicides. Apparent michaelis constants (Km) and maximal reaction velocities (Vmax) are calculated by non-linear regression with the software GraphPad Prism 5 (GraphPad Software, La Jolla, USA) using a substrate inhibition model. […] Weighted means (by standard error) of Km and […] values are calculated from at least three independent experiments. […]
(§8) Field performance of the HPPD enzyme, which is used as a herbicide tolerance trait, may depend not only on its lack of sensitivity towards HPPD inhibiting herbicides but also on its activity. To assess the potential performance of a herbicide tolerance trait a tolerance index (TI) is calculated using the following formula: […]

[2] = molecular target: T1, Arabidopsis HPPD (SEQ ID: 53) (Arabidopsis thaliana, UniProt P93836); test: HPPD activity assay, Arabidopsis wild-type HPPD; type: biochemical; set-up: key to Normalized tolerance index TI: tolerance index relative to Arabidopsis wild-type HPPD (= 1)
T1 construct: His6 (N); made in house; host or cells: E. coli BL21 (DE3)
T1 sequence (P93836 1-445): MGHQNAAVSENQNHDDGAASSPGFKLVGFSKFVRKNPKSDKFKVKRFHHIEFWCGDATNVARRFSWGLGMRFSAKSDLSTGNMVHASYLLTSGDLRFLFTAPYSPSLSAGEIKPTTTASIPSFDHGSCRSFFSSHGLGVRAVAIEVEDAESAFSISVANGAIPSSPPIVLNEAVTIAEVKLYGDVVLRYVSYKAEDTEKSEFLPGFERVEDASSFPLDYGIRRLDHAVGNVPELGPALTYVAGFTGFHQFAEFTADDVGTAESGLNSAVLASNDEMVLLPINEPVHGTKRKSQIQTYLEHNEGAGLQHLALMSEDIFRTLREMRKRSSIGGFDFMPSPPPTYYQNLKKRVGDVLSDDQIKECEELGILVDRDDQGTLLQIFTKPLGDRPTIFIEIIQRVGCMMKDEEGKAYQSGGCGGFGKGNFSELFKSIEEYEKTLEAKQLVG
Protocol: as §1, §2
as §3, with “Thus, final inhibitor concentrations range from 200 μM to 2.5 nM or from 5 μM to 63 pM, respectively.” left out
as §4, §5
as §6, with “Thus, final inhibitor concentrations range from 5 μM to 320 pM, respectively.” left out
Using methods which are described in the above examples or well known in the art, purified, recombinant wildtype HPPD enzymes are characterized with respect to their kinetic properties and sensitivity towards HPPD inhibiting herbicides. Apparent michaelis constants (Km) and maximal reaction velocities (Vmax) are calculated by non-linear regression with the software GraphPad Prism 5 (GraphPad Software, La Jolla, USA) using a substrate inhibition model.
as §8
Easy comparison and ranking of each trait is enabled by normalizing tolerance indexes on Arabidopsis wild-type HPPD.

[3] = tested on: Lolium HPPD; test: HPPD activity assay, Lolium HPPD; type: biochemical
Protocol: as §1, §2, §3, §4, §5, §6, §7, §8

[4] = tested on: Chlamydomonas HPPD1; test: HPPD activity assay, Chlamydomonas HPPD1; type: biochemical, Chlamydomonas reinhardtii
Protocol: as §1, §2, §3, §4
(§9) The assay mixture can contain 150 mM potassium phosphate buffer pH 7.0, 50 mM L-ascorbic acid, 100 μM Catalase (Sigma-Aldrich), 1 μM FeSO4 and 0.2 units of purified HPPD enzyme in a total volume of 505 μl. […]
(§10) Inhibitors are dissolved in DMSO (dimethylsulfoxide) to a concentration of 0.5 mM. […] IC50 values are calculated using non-linear regression.
as §7

[5] = tested on: Alopecurus HPPD; test: HPPD activity assay, Alopecurus HPPD; type: biochemical
Protocol: as §1, §2, §3, §4, §9, §10, §7

[6] = tested on: Poa HPPD; test: HPPD activity assay, Poa HPPD; type: biochemical
Protocol: as §1, §2, §3, §4, §9, §10, §7

[7] = molecular target: T2, Arabidopsis HPPD variant M335H, P336A (Arabidopsis thaliana, UniProt P93836, M335H/P336A); test: HPPD activity assay, Arabidopsis HPPD mutant M335H, P336A; type: biochemical
T2 construct: PCR-based site directed mutagenesis of pEXP5-NT/TOPO®-AtHPPD is done; His6 (N); made in house; host or cells: E. coli BL21 (DE3)
Protocol: as §1, §2
as §3, with “Thus, final inhibitor concentrations range from 200 μM to 2.5 nM or from 5 μM to 63 pM, respectively.” left out
as §4, §5
Inhibitors are dissolved in DMSO (dimethylsulfoxide) to a concentration of 0.5 mM. […] IC50 values are calculated using non-linear regression. […]
Purified, mutant HPPD enzymes are obtained by the methods described above. […] Apparent michaelis constants (Km) and maximal reaction velocities (Vmax) are calculated by non-linear regression with the software GraphPad Prism 5 (GraphPad Software, La Jolla, USA) using a substrate inhibition model.
as §8, with “of the optimized HPPD enzyme,” for “of the HPPD enzyme,”, “herbicide tolerance trait may depend” for “herbicide tolerance trait, may depend”

[8] = tested on: Sorghum HPPD; test: HPPD activity assay, Sorghum HPPD; type: biochemical
Protocol: as §1, §2, §3, §4, §9, §10, §7

T2 sequence (P93836 whole entry M335H/P336A): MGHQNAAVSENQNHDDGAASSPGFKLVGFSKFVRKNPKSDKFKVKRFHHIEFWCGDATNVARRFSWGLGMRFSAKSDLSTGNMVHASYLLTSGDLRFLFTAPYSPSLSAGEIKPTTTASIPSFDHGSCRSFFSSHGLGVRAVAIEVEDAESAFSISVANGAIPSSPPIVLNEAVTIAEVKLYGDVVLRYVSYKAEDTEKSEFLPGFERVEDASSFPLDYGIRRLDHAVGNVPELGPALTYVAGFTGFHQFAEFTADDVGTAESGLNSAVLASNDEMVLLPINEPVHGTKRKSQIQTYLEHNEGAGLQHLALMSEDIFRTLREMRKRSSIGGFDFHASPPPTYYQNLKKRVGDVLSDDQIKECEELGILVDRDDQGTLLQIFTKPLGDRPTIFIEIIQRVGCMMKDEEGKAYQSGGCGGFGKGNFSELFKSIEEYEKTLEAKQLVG

CC1CC(c2c(Cl)ccc(C3=C(O)c4ncccc4CS3(=O)=O)c2Cl)=NO1 (stereo not drawn) [Inhibitor 4, 7-[2,4-dichloro-3-(5-methyl-4,5-dihydroisoxazol-3-yl)phenyl]-6,6-dioxo-5H-thiopyrano[4,3-b]pyridin-8-ol]
Normalized tolerance index TI [1]: 5.3
Normalized tolerance index TI ([2]; Arabidopsis HPPD Wildtype, Table 15): 1
Normalized tolerance index TI ([2]; Arabidopsis HPPD, Table 12): 1
Normalized tolerance index TI [3]: 4.5
Normalized tolerance index TI [4]: 1.3
Normalized tolerance index TI [5]: 3.5
Normalized tolerance index TI [6]: 1.2
Normalized tolerance index TI [7]: 7.4
Normalized tolerance index TI [8]: 3.7
